This passage reports Ki results from ChEMBL document CHEMBL4673247, “Mycophenolic anilides as broad specificity inosine-5'-monophosphate dehydrogenase (IMPDH) inhibitors” (Bioorg Med Chem Lett, 2020).

Structures are written as SMILES.

For assay [1], the target named is T1, Inosine-5'-monophosphate dehydrogenase (Cryptosporidium parvum, UniProt Q8T6T2).
T1 sequence (Q8T6T2 whole entry): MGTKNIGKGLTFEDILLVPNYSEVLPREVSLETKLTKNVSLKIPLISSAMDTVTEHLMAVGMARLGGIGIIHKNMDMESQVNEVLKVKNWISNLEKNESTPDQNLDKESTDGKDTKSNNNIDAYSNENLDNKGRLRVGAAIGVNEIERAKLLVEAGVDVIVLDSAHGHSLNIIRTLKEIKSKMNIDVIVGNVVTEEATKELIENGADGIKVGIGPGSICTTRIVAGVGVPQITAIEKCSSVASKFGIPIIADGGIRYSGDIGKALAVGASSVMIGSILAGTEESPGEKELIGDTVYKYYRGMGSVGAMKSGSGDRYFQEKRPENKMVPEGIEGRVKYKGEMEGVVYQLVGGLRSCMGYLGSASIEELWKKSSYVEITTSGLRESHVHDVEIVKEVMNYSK
Description: Inhibition of Cryptosporidium parvum IMPDH expressed in Escherichia coli assessed as apparent inhibition constant using NAD as substrate by fluorescence assay. As to conditions: read-out: Ki(app).

The target of assay [2] is Inosine-5'-monophosphate dehydrogenase 2 (Homo sapiens, UniProt P12268). The assay can be described thus: Inhibition of human IMPDH2 expressed in Escherichia coli assessed as apparent inhibition constant using NAD as substrate by fluorescence assay. Conditions: read-out: Ki(app).

As for `COc1c(C)c2c(c(O)c1C/C=C(\C)CCC(=O)Nc1ccc(Cl)cc1)C(=O)OC2`, the Ki in assay [1] was 42 nM; in assay [2], 130 nM.

As to `COc1c(C)c2c(c(O)c1CCC(C)CCC(=O)Nc1ccc(Cl)c(C(F)(F)F)c1)C(=O)OC2` (stereo not given), the Ki in assay [1] came to 60 nM.

`COc1c(C)c2c(c(O)c1C/C=C(\C)CCC(=O)Nc1ccc(Cl)c(C(F)(F)F)c1)C(=O)OC2`: the values for the Ki in assay [1] and in assay [2] were 16 nM and 230 nM, respectively.

On to `COc1c(C)c2c(c(O)c1C/C=C(\C)CCC(=O)N(C)c1ccc(Cl)cc1)C(=O)OC2`, for which the Ki in assay [1] turned out to be 870 nM.

Regarding `COc1c(C)c2c(c(O)c1C/C=C(\C)CCC(=O)Nc1ccc(C#N)cc1)C(=O)OC2`, the Ki was 110 nM in assay [1] and 350 nM in assay [2].

Regarding `COc1c(C)c2c(c(O)c1C/C=C(\C)CCC(=O)Nc1ccc(Cl)c(Cl)c1)C(=O)OC2`, the figures for the Ki in assay [1] and in assay [2] were 41 nM and 340 nM, respectively.

As to `COc1cc(NC(=O)CC/C(C)=C/Cc2c(O)c3c(c(C)c2OC)COC3=O)ccc1Cl`, the Ki in assay [1] was 46 nM; in assay [2] it was 350 nM.

`COc1c(C)c2c(c(O)c1C/C=C(\C)CCC(=O)Nc1ccc(C(F)(F)F)cc1)C(=O)OC2`: the Ki in assay [2] turned out to be 400 nM.

For the compound `COc1c(C)c2c(c(O)c1C/C=C(\C)CCC(=O)Nc1ccc(F)cc1)C(=O)OC2`, the Ki in assay [2] was found to be 270 nM.

Regarding `COc1c(C)c2c(c(OC)c1C/C=C(\C)CCC(=O)Nc1ccc(Cl)c(C(F)(F)F)c1)C(=O)OC2`, the Ki in assay [1] was 1700 nM.
